Measured values as given in patent US20240082279A1, “COMPOSITIONS AND METHODS FOR PREVENTING AND/OR TREATING SCARS” (L'Oreal, priority 2022, published 2024).

Assays:
Assay type in all cases: cell-based, human
Filaggrin = Filaggrin immunofluorescence staining in laser wounded reconstructed skin; settings: 3% in 3% propylene glycol, Day 2 SoftSkin™ after CO2 laser, vs laser alone, laser+vehicle and untreated control, FIG. 4
Method: (§1) Surgical skin samples were be taken from adults and subjected to the 0.25% trypsin dermis/epidermis separation method described in Rheinwald to obtain suspensions of normal human keratinocytes (NHK) and dermal fibroblasts. See Rheinwald J. G., Green H.: Serial cultivation of strains of human epidermal keratinocytes: The formation of keratinizing colonies from single cells. Cell. 6(3):331-43. 1975. The separated normal human dermal fibroblasts were cultured in DMEM+10% fetal calf serum. The fibroblasts were cast onto a lower layer of proto-SoftSkin™ gel. A full-thickness dermal layer equivalent was obtained after contraction of a mixture of Collagen Type I and human normal fibroblasts. The separated normal human keratinocyte cell cultures were initiated using the 3T3 feeder-layer technique described in Rheinwald J. G., Green H.: Epidermal growth factor and the multiplication of cultured human epidermal keratinocytes. Nature 265:421-424 (1977). The separated normal human keratinocytes were seeded on a lattice on the top layer of a proto-SoftSkin™ gel and the culture was left for 7 days in submerged conditions at 37° C. in the presence of 5% carbon dioxide in MEM containing 10% fetal calf serum, allowing the cells to proliferate and form an epidermal layer. Then, the culture was raised upwards to air-liquid interface for an additional 7 days to grow reconstructed skin models (SoftSkin™). […]

α-SMA = α-SMA ELISA of lysed reconstructed skin tissue; settings: 3% in 3% propylene glycol, Day 2 SoftSkin™ after CO2 laser, vs laser treated tissues not further treated, FIG. 8
Method: Surgical skin samples were be taken from adults and subjected to the 0.25% trypsin dermis/epidermis separation method described in Rheinwald to obtain suspensions of normal human keratinocytes (NHK) and dermal fibroblasts. See Rheinwald J. G., Green H.: Serial cultivation of strains of human epidermal keratinocytes: The formation of keratinizing colonies from single cells. Cell. 6(3):331-43. 1975. The separated normal human dermal fibroblasts were cultured in DMEM+10% fetal calf serum. The fibroblasts were cast onto a lower layer of proto-SoftSkin™ gel. A full-thickness dermal layer equivalent was obtained after contraction of a mixture of Collagen Type I and human normal fibroblasts. […]
Punched Day 2 normal human tissue cultures tissues were submerged with Tissue Lysis Buffer (R&D Systems) and cryogenically ground 3 times, and further lysed on ice for 30 minutes. […] Aliquots of the supernatant were removed and stored at −80° C. until assayed. α-SMA concentration in ECM was determined using a BCA protein array kit (Absin, abs9232-500) and normalized before ELISA assay (alpha SMA Human ELISA Kit #Abcam, ab240678). […]
Each experiment in Examples 2-5 was replicated three times. For immunostaining study, one cryosection per replicate and 4 fluorescence images/section were taken for data analysis. […]

[1] = tested on: laser wounded reconstructed skin (SoftSkin™); test: H&E histology of laser wounded reconstructed skin (SoftSkin™); settings: SoftSkin™ model after CO2 laser; 10 uL working solution topically every 24 hours, Day 0 to Day 2; sections Day 0, 2, 4; FIG. 2
Method: as §1

Ki67 = Ki67 immunofluorescence staining in laser wounded reconstructed skin; settings: 3% in 3% propylene glycol, Day 2 SoftSkin™ after CO2 laser, vs laser alone, laser+vehicle and untreated control, FIG. 6
Method: as §1

DKK-1 = DKK-1 secretion, Luminex Assay of medium supernatant from reconstructed skin; settings: 3% in 3% propylene glycol, day 1 SoftSkin™ after CO2 laser, vs laser alone, laser+vehicle, untreated control
Method: Surgical skin samples were be taken from adults and subjected to the 0.25% trypsin dermis/epidermis separation method described in Rheinwald to obtain suspensions of normal human keratinocytes (NHK) and dermal fibroblasts. See Rheinwald J. G., Green H.: Serial cultivation of strains of human epidermal keratinocytes: The formation of keratinizing colonies from single cells. Cell. 6(3):331-43. 1975. The separated normal human dermal fibroblasts were cultured in DMEM+10% fetal calf serum. The fibroblasts were cast onto a lower layer of proto-SoftSkin™ gel. A full-thickness dermal layer equivalent was obtained after contraction of a mixture of Collagen Type I and human normal fibroblasts. The separated normal human keratinocyte cell cultures were initiated using the 3T3 feeder-layer technique described in Rheinwald J. G., Green H.: Epidermal growth factor and the multiplication of cultured human epidermal keratinocytes. Nature 265:421-424 (1977). The separated normal human keratinocytes were seeded on a lattice on the top layer of a proto-SoftSkin™ gel and the culture was left for 7 days in submerged conditions at 37° C. in the presence of 5% carbon dioxide in MEM containing 10% fetal calf serum, allowing the cells to proliferate and form an epidermal layer. Then, the culture was raised upwards to air-liquid interface for an additional 7 days to grow reconstructed skin models (SoftSkin™).
The reconstructed skin samples derived from normal human dermal fibroblasts and normal human keratinocytes were subjected to CO2 laser treatment. […]
Medium supernatant was collected from the reconstructed skin samples. DKK-1 secretions were measured using a Luminex Assay (R&D Systems) in a panel following the manufacturer's guidelines. […]
Each experiment in Examples 2-5 was replicated three times. For immunostaining study, one cryosection per replicate and 4 fluorescence images/section were taken for data analysis. All the data were statistically analyzed by Graph Pad Prism and presented as mean±standard deviation unless otherwise specified. […]

CC(O)C[C@@H]1OC[C@@H](O)[C@H](O)[C@H]1O (stereo partly drawn) [Hydroxypropyl tetrahydropyrantriol, C13-D-xylopyranoside2-hydroxypropane]
Filaggrin expression (relative fluorescence intensity, Image J) (Filaggrin): increased Filaggrin expression | Filaggrin expression (relative fluorescence intensity, Image J) (Filaggrin; listed as C-glycoside): significantly higher level | α-SMA expression (α-SMA): reduced α-SMA expression in a statistically significant manner | α-SMA expression (α-SMA; listed as C-glycoside): reduced the level of α-smooth muscle actin in laser wounded skin in a statistically significant manner | Keratinocyte invasion of laser dermal injury sites (H&E stained cross-sections) [1]: Keratinocytes invaded laser dermal injury sites | Ki67 expression (ratio of Ki67 positive cells/total cell number in basal layer) (Ki67): increased Ki67 expression | Ki67 expression (ratio of Ki67 positive cells/total cell number in basal layer) (Ki67; listed as C-glycoside): significantly higher level | DKK-1 secretion/expression (DKK-1; FIG. 7): enhanced expression of DKR-1 | DKK-1 secretion/expression (DKK-1; FIG. 7, listed as C-glycoside): restored DKK-1 secretion to a level similar to control | DKK-1 secretion/expression (DKK-1; FIG. 7, listed as Proxylane): enhancing the expression of DKK-1

hyaluronic acid [reference compound]
Keratinocyte invasion of laser dermal injury sites (H&E stained cross-sections) [1]: not
